From patent US20060088874A1, “Methods and kits for detecting mutations” (Promega Corporation, priority 2004, published 2006)
Read-outs that look alike come from different tables or passages of the source.

Key:
[1] = system: mtDNA (Δ-mtDNA4977 deletion); assay type: in vivo, C57BL/6 mice; settings: old age paraquat-treated group, three mice
Procedure: […] mice were housed and inbred at the University of Wisconsin, with an average life span ˜30 months. Four groups of three mice were included in the study: 5-month old mice (young control or YC); 5-month old mice treated with paraquat; 24-month old mice (old age); and 24-month old mice treated with paraquat. Paraquat-treated animals received a single intraperitoneal injection of 50 mg/kg body weight dissolved in PBS 24 hours after their last feeding. Each mouse was sacrificed by cervical dislocation.
The entire liver from each mouse was dissected, washed with PBS, placed in a 1.5 ml Ependorf tube, snap frozen in liquid nitrogen, and stored at −80° C. DNA was prepared from the mouse liver tissue by using the DNA-IQ Tissue and Hair Extraction Kit (Promega Corporation, Madison, Wis.) and was quantified using the PicoGreen dsDNA Quantitative Kit (Molecular Probes, Eugene, Oregon) following manufacturers protocols.
Based on the mouse mtDNA sequence, four fluorescence labeled primer pairs were designed to detect both wildtype sequences and mtDNA deletions. […]
Separation and detection of amplified fragments was performed on an ABI PRISM® 3100 Genetic Analyzer following the manufacturer's protocol (Applied Biosystems, Foster City, Calif.). Data was analyzed with the GeneScan and Genotyper computer software packages (Applied Biosystems). […]

[2] = system: mononucleotide repeat loci (mBat markers); assay type: in vivo, C57BL/6 mice
[3] = system: microsatellite markers in human fibroblast cell line #AG01522
Procedure: human fibroblast cell line #AG01522 from Coriell Cell Repository were cultured in MEM Eagle-Earle BSS 2× concentration of essential and non-essential amino acids and vitamins with 2 mM L-glutamine, 10% fetal bovine serum, 0.5 Units/ml of penicillin, 0.5 μg/ml of streptomycin. Cell cultures were grown at 37° C. and 5% CO2 under sterile conditions and split at a ratio of 1:5 when cells were confluent by releasing cells with trypsin-EDTA treatment. […] Cells were pelleted and DNA extracted.
Mutant alleles were identified by small-pool PCR as described in Example B above using primer pairs specific for microsatellite markers (Tables 2 and 7) including: (1) mononucleotide repeat markers (NR-21, NR-24, BAT-25, BAT-26 and MONO-27); (2) extended mononucleotide repeat markers (hBAT-51d, hBAT-52a, hBAT-53c, hBAT59a, hBAT-60a and hBAT-62); (3) tetranucleotide repeat markers on autosomal chromosomes (D7S3070, D7S3046, D7S1808, D10S1426 and D3S2432); (4) tri-, tetra- and penta-nucleotide repeats on the Y chromosome (DYS391, DYS389 I, DYS389 II, DYS438, DYS437, DYS19, DYS392, DYS393, DYS390, and DYS385); and (5) penta-nucleotide repeats Penta B, C, D, and E (Bacher, et al. 1999.

C[n+]1ccc(-c2cc[n+](C)cc2)cc1 [Paraquat]
Δ-mtDNA4977 detected (mice of group) [1]: All three mice in the old age paraquat-treated group showed Δ-mtDNA4977 | Mutation Freq ([2]; mBat-24, Old w/Paraquat): 0.000 | # Mutants ([2]; mBat-24, Old w/Paraquat, 318 alleles): 0 | Mutation Freq ([2]; mBat-24, Young w/ Paraquat): 0.002 | # Mutants ([2]; mBat-24, Young w/ Paraquat, 648 alleles): 1 | Mutation Freq ([2]; mBat-26, Old w/Paraquat): 0.000 | # Mutants ([2]; mBat-26, Old w/Paraquat, 340 alleles): 0 | Mutation Freq ([2]; mBat-26, Young w/ Paraquat): 0.000 | # Mutants ([2]; mBat-26, Young w/ Paraquat, 457 alleles): 0 | Mutation Freq ([2]; mBat-30, Old w/Paraquat): 0.000 | # Mutants ([2]; mBat-30, Old w/Paraquat, 344 alleles): 0 | Mutation Freq ([2]; mBat-30, Young w/ Paraquat): 0.000 | # Mutants ([2]; mBat-30, Young w/ Paraquat, 704 alleles): 0 | Mutation Freq ([2]; mBat-37, Old w/Paraquat): 0.000 | # Mutants ([2]; mBat-37, Old w/Paraquat, 306 alleles): 0 | Mutation Freq ([2]; mBat-37, Young w/ Paraquat): 0.001 | # Mutants ([2]; mBat-37, Young w/ Paraquat, 992 alleles): 1 | Mutation Freq ([2]; mBat-49, Old w/Paraquat): 0.000 | # Mutants ([2]; mBat-49, Old w/Paraquat, 194 alleles): 0 | Mutation Freq ([2]; mBat-51a, Old w/Paraquat): 0.000 | # Mutants ([2]; mBat-51a, Old w/Paraquat, 240 alleles): 0 | Mutation Freq ([2]; mBat-51b, Old w/Paraquat): 0.000 | # Mutants ([2]; mBat-51b, Old w/Paraquat, 186 alleles): 0 | Mutation Freq ([2]; mBat-52, Old w/Paraquat): 0.000 | # Mutants ([2]; mBat-52, Old w/Paraquat, 44 alleles): 0 | Mutation Freq ([2]; mBat-59, Old w/Paraquat): 0.013 | # Mutants ([2]; mBat-59, Old w/Paraquat, 448 alleles): 6 | Mutation Freq ([2]; mBat-59, Young w/ Paraquat): 0 | # Mutants ([2]; mBat-59, Young w/ Paraquat, 636 alleles): 4 | Mutation Freq ([2]; mBat-61a, Old w/Paraquat): 0.005 | # Mutants ([2]; mBat-61a, Old w/Paraquat, 428 alleles): 2 | Mutation Freq ([2]; mBat-64, Old w/Paraquat): 0.019 | # Mutants ([2]; mBat-64, Old w/Paraquat, 412 alleles): 8 | Mutation Freq ([2]; mBat-64, Young w/ Paraquat): 0 | # Mutants ([2]; mBat-64, Young w/ Paraquat, 443 alleles): 1 | Mutation Freq ([2]; mBat-66, Old w/Paraquat): 0.018 | # Mutants ([2]; mBat-66, Old w/Paraquat, 448 alleles): 8 | Mutation Freq ([2]; mBat-66, Young w/ Paraquat): 0 | # Mutants ([2]; mBat-66, Young w/ Paraquat, 592 alleles): 3 | Mutation Freq ([2]; mBat-67, Old w/Paraquat): 0.051 | # Mutants ([2]; mBat-67, Old w/Paraquat, 394 alleles): 20 | Mutation Freq ([2]; mBat-67, Young w/ Paraquat): 0 | # Mutants ([2]; mBat-67, Young w/ Paraquat, 334 alleles): 1 | mutations in loci mBAT-24, mBAT-26, mBat-30, or mBAT-37 ([2]; old paraquat-treated group, out of 1608 alleles): no mutations | mutations in mononucleotide repeat alleles assayed, loci mBAT-59, mBAT-64, mBAT-66 or mBAT-67 ([2]; paraquat-treated old age group, SP-PCR, (25/1649)): over 1.8%

OO [hydrogen peroxide]
mutations in extended mononucleotide repeats, Y-STRs and A-rich pentanucleotide repeats ([3]; cells exposed to 0.1 to 1.2 mM hydrogen peroxide for 1 hour, 3 days recovery): Mutations were detected | mutations in short mononucleotide repeat markers NR-21, NR-24, BAT-25, BAT-26 or MONO-27 ([3]; cells exposed to hydrogen peroxide, 0/1,526 alleles): No mutations
